Experimental data: publication PMC12311865, “In Vitro Evaluation of the Potential Interactions of Zearalenone-14-sulfate and Zearalenone-14-glucuronide with Human Cytochrome P450 Enzymes, Organic Anion Transporting Polypeptides, and ATP-Binding Cassette Multidrug Transporters” (ACS Omega, 2025)
Read-outs that look alike come from different tables or passages of the source.

Tests used:
CYP3A4 = target: T1, CYP3A4 (Homo sapiens, UniProt P08684); experiment: in vitro; format: biochemical; settings: testosterone 5 μM
T1 construct: purchased Merck
T1 sequence (P08684 whole entry): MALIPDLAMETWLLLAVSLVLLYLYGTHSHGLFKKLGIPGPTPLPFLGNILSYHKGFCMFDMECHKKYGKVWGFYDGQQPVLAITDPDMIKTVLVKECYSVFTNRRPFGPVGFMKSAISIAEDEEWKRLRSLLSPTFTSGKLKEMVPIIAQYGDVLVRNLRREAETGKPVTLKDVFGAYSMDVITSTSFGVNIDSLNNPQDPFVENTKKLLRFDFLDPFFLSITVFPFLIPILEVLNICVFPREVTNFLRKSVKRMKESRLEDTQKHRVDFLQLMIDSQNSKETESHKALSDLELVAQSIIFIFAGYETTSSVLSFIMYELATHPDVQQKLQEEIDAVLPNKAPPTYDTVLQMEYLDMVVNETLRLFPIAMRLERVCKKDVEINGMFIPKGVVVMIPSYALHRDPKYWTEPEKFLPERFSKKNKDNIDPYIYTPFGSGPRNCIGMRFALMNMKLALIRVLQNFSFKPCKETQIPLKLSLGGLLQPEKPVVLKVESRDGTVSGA
Source text: Testosterone and 6β-hydroxytestosterone were detected at 240 nm.

OATP1A2 = target: T2, OATP1A2 (Homo sapiens, UniProt P46721); experiment: OATP1A2-mediated SR101 uptake in overexpressing A431 cells; format: cell-based
T2 construct: expressed in transfected cells; host or cells: A431
T2 sequence (P46721 1-670): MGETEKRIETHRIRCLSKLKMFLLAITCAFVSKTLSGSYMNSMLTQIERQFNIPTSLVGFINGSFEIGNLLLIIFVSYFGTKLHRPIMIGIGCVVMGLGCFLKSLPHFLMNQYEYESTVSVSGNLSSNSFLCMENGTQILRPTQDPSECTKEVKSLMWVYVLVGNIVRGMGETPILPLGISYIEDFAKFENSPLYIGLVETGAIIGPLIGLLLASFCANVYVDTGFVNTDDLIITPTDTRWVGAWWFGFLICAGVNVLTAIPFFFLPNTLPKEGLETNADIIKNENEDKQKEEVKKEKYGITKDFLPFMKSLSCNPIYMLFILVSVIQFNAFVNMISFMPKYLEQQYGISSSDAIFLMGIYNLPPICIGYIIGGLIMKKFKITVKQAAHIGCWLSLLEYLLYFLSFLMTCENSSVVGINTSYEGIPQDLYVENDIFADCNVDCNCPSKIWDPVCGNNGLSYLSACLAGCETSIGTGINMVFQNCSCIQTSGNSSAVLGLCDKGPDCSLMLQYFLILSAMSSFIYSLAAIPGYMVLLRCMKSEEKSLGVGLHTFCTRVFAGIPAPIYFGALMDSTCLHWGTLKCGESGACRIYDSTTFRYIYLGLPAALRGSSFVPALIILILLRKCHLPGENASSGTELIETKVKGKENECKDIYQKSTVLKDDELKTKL
Experimental: (§1) The human epidermoid carcinoma cell (A431) overexpressing OATP1A2, OATP1B1, OATP1B3, or OATP2B1 transporters and their mock control cells were generated previously as described. , Cell culture was maintained in DMEM supplemented with 10% fetal bovine serum, 2 mM L-glutamine, 100 units/mL penicillin, and 100 μg/mL streptomycin at 37 °C and 5% CO2.
(§2) The inhibitory effects of mycotoxins (Z14S and Z14GA) were examined using indirect fluorescence assays, where pyranine and SR101 were used as fluorescent substrates. , A431 cells overexpressing OATP1A2, OATP1B1/3, or OATP2B1 and their mock-transfected controls were seeded at a density of 8 × 10^4 cells/well onto 96-well plates and incubated for 18–22 h prior to transport measurements. The next day, plated cells were washed three times with 200 μL of PBS (phosphate-buffered saline, pH 7.4) and preincubated with 50 μL of transport buffer (pH 5.5; 125 mM NaCl, 4.8 mM KCl, 1.2 mM CaCl2, 1.2 mM KH2PO4, 12 mM MgSO4, 25 mM MES, and 5.6 mM glucose) with or without increasing concentrations of the mycotoxins tested (0.001–20 μM) for 5 min at 37 °C. The transport inhibition measurements were initiated by adding 50 μL of transport buffer containing the proper fluorescent substrate SR101 (0.5 μM, OATP1A2) or pyranine (10 μM for OATP1B1 or 20 μM for OATP1B3 and OATP2B1). After 10 min (OATP1A2), 15 min (OATP1B1 and OATP2B1), or 30 min (OATP1B3) incubation, the transport was terminated by washing the cells three times with ice-cold PBS. […] Using an Enspire plate reader (PerkinElmer, Waltham, MA), the fluorescence was measured at excitation/emission wavelengths of 460/510 nm (pyranine) or 586/605 nm (SR101).
(§3) OATP-mediated transport was obtained by subtracting the activity of the mock control cells from the activity of the OATP-expressing cells. The transport activity (%) of the OATPs was calculated by comparing the fluorescence signal obtained in the absence of the compounds tested (set to 100%).

OATP1B3 = target: T3, OATP1B3 (Homo sapiens, UniProt Q9NPD5); experiment: OATP1B3-mediated pyranine uptake in overexpressing A431 cells; format: cell-based
T3 construct: expressed in transfected cells; host or cells: A431
T3 sequence (Q9NPD5 1-702): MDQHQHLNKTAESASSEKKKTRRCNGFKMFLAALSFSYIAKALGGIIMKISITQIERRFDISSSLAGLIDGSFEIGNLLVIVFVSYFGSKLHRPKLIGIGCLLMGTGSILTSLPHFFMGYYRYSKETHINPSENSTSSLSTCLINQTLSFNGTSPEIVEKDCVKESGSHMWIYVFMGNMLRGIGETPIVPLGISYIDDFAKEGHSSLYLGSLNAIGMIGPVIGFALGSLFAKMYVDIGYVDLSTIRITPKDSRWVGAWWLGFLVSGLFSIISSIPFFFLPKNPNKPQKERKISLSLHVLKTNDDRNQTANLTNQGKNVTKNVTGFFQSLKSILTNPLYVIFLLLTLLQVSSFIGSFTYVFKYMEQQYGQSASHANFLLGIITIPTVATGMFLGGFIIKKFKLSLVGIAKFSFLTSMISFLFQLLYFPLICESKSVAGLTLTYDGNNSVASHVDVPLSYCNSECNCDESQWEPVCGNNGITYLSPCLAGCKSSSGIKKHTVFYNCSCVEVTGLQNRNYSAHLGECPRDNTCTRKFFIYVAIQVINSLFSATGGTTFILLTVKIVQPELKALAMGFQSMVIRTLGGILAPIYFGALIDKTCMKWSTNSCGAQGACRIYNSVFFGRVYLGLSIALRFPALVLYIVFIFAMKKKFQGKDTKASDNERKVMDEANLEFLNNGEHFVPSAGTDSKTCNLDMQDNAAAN
Experimental: as §1, §2, §3

Compound	inhibition of CYP3A4 (decrease in metabolite formation) (CYP3A4; each 20 μM, 180 min)	IC50 (OATP1A2; SR101 0.5 μM, 10 min, A431 cells, read-out: IC50 for OATP1A2)	IC50 (OATP1B3; pyranine 20 μM, 30 min, A431 cells, read-out: IC50 for OATP1B3)	inhibition at 180 min, 20 μM (CYP3A4; human, pH 7.5, each 20 μM, read-out: inhibition of CYP3A4 (decrease in metabolite formation))	IC50 (OATP1A2)	decrease in OATP1A2 transport activity (OATP1A2; 20 μM, SR101 substrate, A431 cells)	IC50 (OATP1B3)	decrease in OATP1B3 transport activity (OATP1B3; 20 μM, pyranine substrate, A431 cells)
C[C@H]1CCCC(=O)CCC/C=C/c2cc(O[C@@H]3O[C@H](C(=O)O)[C@@H](O)[C@H](O)[C@H]3O)cc(O)c2C(=O)O1 [Z14GA, Zearalenone-14-glucuronide]	no effects	> 20 µM	> 20 µM					
C[C@H]1CCCC(=O)CCC/C=C/c2cc(OS(=O)(=O)O)cc(O)c2C(=O)O1 [Z14S, zearalenone-14-sulfate]				~45%	1.4 µM	80–100%	2.3 µM	80–100%
